Measured values published in patent publication US11591297B2, “Compound having PD-L1 expression-suppressing action” (TOHOKU UNIVERSITY, priority 2019, dated 2023).
Read-outs that look alike come from different tables or passages of the source.

Assays:
human PD-L1 promoter = experiment: Inhibitory effect of luciferase expression under control of PD-L1 promoter (A549/PD-L1luc luciferase assay, corrected by total protein); format: cell-based; conditions: A549/PD-L1luc cells, 48±4 hours, RLU corrected by total protein amount, read-out: IC50 (50% inhibition value of luciferase expression)
Excerpt: A reporter vector, pPD-L1luc obtained by the insertion of a human PD-L1 promoter sequence (−2097 to 51) into the multiple cloning site of pGL-3 vector basic (Promega) expresses luciferase under the control of PD-L1 promoter when transfected into animal cells. The pPD-L1luc was transfected into a human non-small cell lung cancer-derived cell line A549 together with pPUR (Clontech) that expresses a puromycin resistance gene (puromycin-N-acetyl-transferase gene), and then cells expressing luciferase which could grow in a puromycin-supplemented medium were selected. The selected cells were named “A549/PD-L1luc cells” and used for luciferase assay as described below.
A test compound was added into a culture liquid containing A549/PD-L1luc cells to observe the influence of the test compound on the amount of luciferase expressed in the cells. Here, it can be considered that when the test compound has a cell cytotoxicity or cell growth inhibitory effect, the total expression level of luciferase is recued due to a reduction in the number of living cells that depends on the concentration of the test compound, and thus the inhibitory effect of luciferase expression under the control of PD-L1 promoter of the test compound cannot be properly evaluated.
A549/PD-L1luc cells were suspended in DMEM containing 10% fetal calf serum (FCS) and 1% penicillin/streptomycin (P/S) (hereinafter, referred to as “DMEM medium”) at 3×10^4 cells/mL to obtain a cell suspension, and the cell suspension was dispensed into each well of a 96-well plate in an amount of 100 μL. In order to perform the assay in triplicate, 3 wells were prepared for control group, and 3 wells were prepared for test compound-treated groups at each concentration. After the dispensation, the 96-well plate was incubated in a CO2 incubator (at 37° C. and 5% CO2) for 24±4 hours.
Each compound of Examples 1 to 6 and Comparative Example 1 was dissolved in dimethylsulfoxide (DMSO) to obtain 50 mmol/L of a compound solution, and the compound solution was stored at −80° C. The compound solution was diluted with DMSO in 2-fold dilution series (usually, in the range of 0.04 mmol/L to 10 mmol/L) to prepare test compound solutions whose concentration varied by two fold for luciferase assay.
Each solution of only DMSO (control) and the diluted test compound (sample) was dispensed into each well containing the cell suspension in an amount of 0.5 μL (200-fold dilution). The solution in each well was mixed with a vortex mixer, and then the 96-well plate was incubated in a CO2 incubator (at 37° C. and 5% CO2) for 48±4 hours. Luciferase Assay Substrate (hereinafter, referred to as “LAS”) supplied in Luciferase Assay Systems (Promega: Cat #E1500) was dissolved in Luciferase Assay Buffer (LAB) to prepare a luciferase reagent. 5× Cell Culture Lysis Reagent (hereinafter, referred to as “CCLR”) was diluted by 5 times with water to prepare 1×CCLR.
After the incubation for 48±4 hours, the medium in each well was completely removed, and 1×CCLR was dispensed into each well in an amount of 50 μL. The plate was allowed to stand at room temperature for 30 minutes, and then 1×CCLR in each well was used as an assay sample for luciferase and total protein amount. The luciferase reagent (100 μL) was placed in a tube for chemiluminescence measurement assay, and the assay sample (20 μL) was added into the tube and mixed with the luciferase reagent to measure chemiluminescence (Relative Luminescence Intensity: RLU) using GloMax 20/20 (Promega).
The above-mentioned assay sample (10 μL) was diluted by 10 times with water (90 μL). Each calibration curve sample was prepared by diluting the BSA solution with water as described in Table 1.
BCA reagent A and BCA reagent B (50:1) supplied in a kit for protein assay were mixed to prepare Working Reagent. Each of the calibration curve samples (Vials I to VI) and the 10-fold diluted assay samples was dispensed into each well of a 96-well plate in an amount of 25 μL, respectively. […]

PD-L1 = experiment: Inhibitory effect of PD-L1 expression by cell staining with anti-PD-L1 antibody in IFN-γ-treated THP-1 cells (flow cytometry); format: cell-based; conditions: Homo sapiens, IFN-γ 25 ng/mL, 24±2 hours, subMFI anti-CD274-PC7, read-out: IC50 (50% PD-L1 expression inhibition concentration)
Procedure: The inhibitory effects of each compound of Examples 1 to 6 on the PD-L1 expression were evaluated according to the following procedures.
(1) Acute monocytic leukemia cell-derived THP-1 cells were suspended in RPMI medium containing 10% FCS and 1% P/S (hereinafter, referred to as “RPMI medium”) at 5×10^5 cells/mL to obtain a cell suspension, and the cell suspension was dispensed into each well of a 6 well-plate in an amount of 3 mL. In order to activate the THP-1 cells and express PD-L1 in the cells, IFN-γ (PEPROTECH, Cat. No. 300-02-100UG, >2e+7 U/mg) was added into each well at a concentration of 25 ng/mL (>500 U/mL). 50 mmol/L of the test compound solution was diluted with the medium (usually, in the range of 0.025 mmol/L to 1 mmol/L), and the diluted solution was added into each well in an amount of 60 μL. The plate was incubated in a CO2 incubator (at 37° C. and 5% CO2) for 24±2 hours. In the control group, only DMSO was added in place of the test compound. (2) A part of the prepared cell culture liquid was collected and the number of cells therein was counted using a cell counter (BIORAD TC-20). The cell culture liquid was centrifuged at 300×g for 5 minutes and the supernatant of the cell culture liquid was removed. The cells were suspended in calcium and magnesium free phosphate buffered saline (PBS−) containing 1% bovine serum albumin (BSA) at a cell concentration of 1 to 2×10^7 cells/mL to prepare a cell suspension. (3) Each cell suspension prepared in the above step (2) were added into a 5 mL tube in an amount of 25 μL. 2 μL of 2% normal mouse serum/PBS− was added into tubes, and the tubes were gently pipetted. The tubes were then allowed to stand at room temperature for 15 minutes. (4) Anti-CD274-PC7 antibody (BECKMAN COULTER, Cat. No. A78884) or mouse IgG1-PC7 antibody (BECKMAN COULTER, 737662) as control was added in each tube in an amount of 10 μL, and the tubes were gently stirred. The tubes were then allowed to stand in the dark on an ice bath for 30 minutes. (5) Foxp3/Transcription Factor Fix/Perm Concentrate (4×) (Cat. No. TNB-1020-L050) (A solution) supplied in FOXP3/Transcription Factor Staining kit (TONBO biosciences) was diluted in Foxp3/Transcription Factor Fix/Perm Diluent (1×) (Cat. No. TNB-1022-L160) (A dilution solution) to prepare a 1×A solution. (6) The 1×A solution was added into each tube in an amount of 1 mL, and the tubes were gently pipetted and stirred. The tubes were then allowed to stand in the dark at room temperature for 30 minutes and centrifuged at 300×g for 5 minutes, and then the supernatants therein were removed. (7) 2 mL of 1% BSA/PBS− was added into each tube and the tubes were gently stirred and centrifuged at 300×g for 5 minutes, and then the supernatants therein were removed. (8) The cells therein were suspended in 0.5 mL of 1% BSA/PBS- and measured with a flow cytometer (Sony: Cell Sorter SH800) within 2 hours. The results were analyzed with a software, FlowJo (Tree Star Inc.). The mean peak fluorescence intensity (MFI) of PD-L1 and mean peak fluorescence intensity of IgG1 were calculated from histograms of the measured fluorescence intensity and number of cells, and the mean fluorescence intensity of IgG1 was subtracted from that of PD-L1 to calculate the subMFI. The experiments were performed in n=2.
The subMFI values of the control cells calculated by the FlowJo analysis and the cells cultured with the addition of the test compounds at each concentration (test cells) were input into an Excel file, and the percentages of the subMFI values of the test cells at each concentration to the average subMFI value of control cells were calculated. The regression line was determined from the percentages of the subMFI values of the test cells at each concentration by the method of least squares to calculate the 50% PD-L1 expression inhibition concentration (IC50 value) of each compound.

Row | IC50 (human PD-L1 promoter; Homo sapiens) | IC50 (PD-L1) | Compound | IC50 (human PD-L1 promoter)
1 | 1300 nM | 1900 nM | O=C(Nc1ccc(Oc2ccc(C(F)(F)F)cc2)cc1)C1CCCN(C(=O)c2ccc(O)cc2)C1 (centres unmarked) [Example 1, 1-(4-Hydroxybenzoyl)-N-(4-(4-(trifluoromethyl)phenoxy)phenyl)piperidine-3-carboxamide] | –
2 | 1200 nM | 1200 nM | O=C(Nc1ccc(Oc2ccc(S(F)(F)(F)(F)F)cc2)cc1)C1CCCN(C(=O)c2ccc(O)cc2)C1 (centres unmarked) [Example 4] | –
3 | – | – | N-(3-(4-Chlorophenoxy)phenyl)-1-(4-hydroxyphenylcarbonyl) piperidine-3-carboxamide [Comparative Example 1, reference compound] | 14100 nM
